Results on 10 compounds are retold here after US11466034B2, “Compound functioning as bromodomain protein inhibitor, and composition” (Betta Pharmaceuticals Co., Ltd., priority 2017, dated 2022).

The term IC50 denotes the midpoint of a concentration-inhibition curve. A lower IC50 goes with greater potency.

In assay [1] the target is BRD4(D1) (Homo sapiens (Human), UniProt O60885). The assay is described as follows: Inhibitory activity against BRD4(D1), HTRF assay. It counts as binding. The procedure:
(§1) (+)-JQ1 was used as comparison compound, to evaluated the inhibitory activity of compounds of the invention against BRD4(D1) and BRD4(D2) in vitro.
(§2) The assays of BRD4 (D1) and BRD4 (D2) were conducted in a 384-well polystyrene plate. The test compounds were first serially diluted in DMSO and the test compound/DMSO were transferred to 384-well plates. The final concentration of DMSO in the assay was 0.1%. 2 volumes of protein/peptide mixture were added into 384-well plates, then 2 volumes of assay mixture were added, and shake for 30 s. The plate was incubated at room temperature for 2 h. Then the HTRF signal on EnVision was readed.
(§3) Use equation (1) to fit the date in Excel to obtain the value of the inhibition rate. Inhibition rate (%)=(maximum value−signal value)/(maximum value−minimum value)*100 Equation(1):
(§4) IC50 determination was performed by fitting the data using GraphPad Prism 5.0 software and equation (2). Y=bottom+(Top−bottom)/(1+10^((Log IC50−X)*HillSlope)); Equation(2): wherein, Y represents the percentage of inhibition (%); X represents the concentration of test compounds.
(§5) The IC50 data of the examples were provided in the following table, wherein, A stands for IC50<100 nM; B stands for IC50 is 100-300 nM; C stands for IC50>300 nM.
(Time-resolved FRET reads energy transfer from a long-lived donor to a nearby acceptor.)

For assay [2], the target named is BRD4(D2) (Homo sapiens (Human), UniProt O60885). Description: Inhibitory activity against BRD4(D2), HTRF assay. Type of assay: binding. The procedure:
as §1, §2, §3, §4, §5

On to `Cc1nc2ncc(-c3cn(C)c(=O)c4[nH]ccc34)nc2n1Cc1ccc(S(C)(=O)=O)cc1` [Example 33, 6-methyl-4-(2-methyl-1-(4-(methylsulfonyl)benzyl)-1H-imidazo[4,5-b]pyrazin-6-yl)-1H-pyrrolo[2,3-c]pyridin-7(6H)-one], for which the IC50 in assay [1] (class symbols) and in assay [2] (class symbols) was less than 100 nM throughout.
For `Cn1cc(-c2cnc3[nH]c(=O)n(Cc4ccc(Cl)cc4)c3c2)c2cc[nH]c2c1=O` [Example 34, 1-(4-chlorobenzyl)-6-(6-methyl-7-oxo-6,7-dihydro-1H-pyrrolo[2,3-c]pyridin-4-yl)-1,3-dihydro-2H-imidazo[4,5-b]pyridin-2-one], the half-maximal inhibitory concentration (IC50) in assay [1] (numeric values) worked out at 107 nM; in assay [2] (numeric values), 31 nM.
On the same counts, the results for `Cc1[nH]c2ncc(-c3cn(C)c(=O)c4[nH]ccc34)cc2c1C(C)c1c(Cl)ccc(F)c1Cl` (centres unmarked) [Example 35, 4-(3-(1-(2,6-dichloro-3-fluorophenyl)ethyl)-2-methyl-1H-pyrrolo[2,3-b]pyridin-5-yl)-6-methyl-1,6-dihydro-7H-pyrrolo[2,3-c]pyridin-7-one] are 45.1 nM and 5.3 nM.
As for `Cn1cc(-c2cnc3ccn(Cc4c(Cl)cccc4Cl)c3c2)c2cc[nH]c2c1=O` [Example 36, 4-(1-(2,6-dichlorobenzyl)-1H-pyrrolo[3,2-b]pyridin-6-yl)-6-methyl-1,6-dihydro-7H-pyrrolo[2,3-c]pyridin-7-one], the IC50 stood at 15 nM in assay [1] (numeric values) and 2.9 nM in assay [2] (numeric values).
Consider `Cn1cc(-c2cnc3ncnc(Nc4ccc(Cl)cc4)c3c2)c2cc[nH]c2c1=O` [Example 37, 4-(4-((4-chlorophenyl)amino)pyrido[2,3-d]pyrimidin-6-yl)-6-methyl-1,6-dihydro-7H-pyrrolo[2,3-c]pyridin-7-one], for which the concentration for half-maximal inhibition (IC50) in assay [1] (class symbols) and in assay [2] (class symbols) was greater than 300 nM in each case.
In the case of `Cc1cc2ncc(-c3cn(C)c(=O)c4[nH]ccc34)cc2n1Cc1c(Cl)cccc1Cl` [Example 38, 4-(1-(2,6-dichlorobenzyl)-2-methyl-1H-pyrrolo[3,2-b]pyridin-6-yl)-6-methyl-1,6-dihydro-7H-pyrrolo[2,3-c]pyridin-7-one], the IC50 in assay [1] (numeric values) was 7.3 nM; in assay [2] (numeric values), 2.2 nM.
Turning to `Cn1cc(-c2ccc3ccn(S(=O)(=O)c4ccc(Cl)cc4)c3n2)c2cc[nH]c2c1=O` [Example 40, 4-(1-((4-chlorophenyl)sulfonyl)-1H-pyrrolo[2,3-b]pyridin-6-yl)-6-methyl-1,6-dihydro-7H-pyrrolo[2,3-c]pyridin-7-one], the values for the half-inhibitory concentration (IC50) in assay [1] (numeric values) and in assay [2] (numeric values) were 10.5 nM and 2.5 nM, respectively.
For the compound `CCS(=O)(=O)Nc1cc(-c2cn(C)c(=O)c3[nH]ccc23)cc2c1nc(C)n2Cc1ccc(C(F)(F)F)cc1` [Example 42, N-(2-methyl-6-(6-methyl-7-oxo-6,7-dihydro-1H-pyrrolo[2,3-c]pyridin-4-yl)-1-(4-(trifluoromethyl)benzyl)-1H-benzo[d]imidazol-4-yl)ethanesulfonamide], the 50% inhibitory concentration (IC50) in assay [1] (class symbols) and in assay [2] (class symbols) was less than 100 nM throughout.
For the compound `CCS(=O)(=O)Nc1cc(-c2cn(C)c(=O)c3[nH]ccc23)cc2c1nc(C)n2Cc1ccc(OC)cc1` [Example 43, N-(1-(4-methoxybenzyl)-2-methyl-6-(6-methyl-7-oxo-6,7-dihydro-H-pyrrolo[2,3-c]pyridin-4-yl)-1H-benzo[d]imidazol-4-yl)ethanesulfonamide], the 50% inhibitory concentration (IC50) in assay [1] (class symbols) and in assay [2] (class symbols) was less than 100 nM in each case.
Consider `CCS(=O)(=O)Nc1cc(-c2cn(C)c(=O)c3[nH]ccc23)cc2c1nc(C)n2C(C)c1ccc(Cl)cc1` (centres unmarked) [Example 44, N-(1-(1-(4-chlorophenyl)ethyl)-2-methyl-6-(6-methyl-7-oxo-6,7-dihydro-H-pyrrolo[2,3-c]pyridin-4-yl)-1H-benzo[d]imidazol-4-yl)ethanesulfonamide], for which the 50% inhibitory concentration (IC50) in assay [1] (class symbols) and in assay [2] (class symbols) was less than 100 nM each time.
